From ChEMBL document CHEMBL1138843, “Pyrazolo[1,5-a]pyrimidines: estrogen receptor ligands possessing estrogen receptor beta antagonist activity” (J Med Chem, 2004)

Experiments:
[1] = molecular target: T1, Estrogen receptor (Homo sapiens) (UniProt P03372)
T1 sequence (whole entry): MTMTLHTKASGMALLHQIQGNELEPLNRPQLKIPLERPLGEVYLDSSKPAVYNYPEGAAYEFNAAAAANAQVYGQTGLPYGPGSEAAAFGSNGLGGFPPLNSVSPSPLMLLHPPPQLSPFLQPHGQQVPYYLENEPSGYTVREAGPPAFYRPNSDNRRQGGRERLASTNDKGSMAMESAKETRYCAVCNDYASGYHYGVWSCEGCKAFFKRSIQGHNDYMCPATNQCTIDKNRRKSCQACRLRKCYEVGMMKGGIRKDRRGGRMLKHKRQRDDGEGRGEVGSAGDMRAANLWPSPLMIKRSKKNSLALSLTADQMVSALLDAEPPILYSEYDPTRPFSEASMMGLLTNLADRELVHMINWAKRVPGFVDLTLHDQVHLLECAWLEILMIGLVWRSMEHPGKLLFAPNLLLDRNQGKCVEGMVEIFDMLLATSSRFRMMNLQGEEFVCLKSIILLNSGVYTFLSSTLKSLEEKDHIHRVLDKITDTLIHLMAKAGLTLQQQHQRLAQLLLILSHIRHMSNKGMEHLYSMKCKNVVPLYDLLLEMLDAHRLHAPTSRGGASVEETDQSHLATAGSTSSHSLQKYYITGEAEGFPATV
Description: Relative binding affinity for human estrogen receptor 1 compared to [3H]estradiol (100%)

[2] = molecular target: Estrogen receptor beta (Homo sapiens) (UniProt Q92731)
Sequence of Estrogen receptor beta (Homo sapiens) (Q92731 whole entry): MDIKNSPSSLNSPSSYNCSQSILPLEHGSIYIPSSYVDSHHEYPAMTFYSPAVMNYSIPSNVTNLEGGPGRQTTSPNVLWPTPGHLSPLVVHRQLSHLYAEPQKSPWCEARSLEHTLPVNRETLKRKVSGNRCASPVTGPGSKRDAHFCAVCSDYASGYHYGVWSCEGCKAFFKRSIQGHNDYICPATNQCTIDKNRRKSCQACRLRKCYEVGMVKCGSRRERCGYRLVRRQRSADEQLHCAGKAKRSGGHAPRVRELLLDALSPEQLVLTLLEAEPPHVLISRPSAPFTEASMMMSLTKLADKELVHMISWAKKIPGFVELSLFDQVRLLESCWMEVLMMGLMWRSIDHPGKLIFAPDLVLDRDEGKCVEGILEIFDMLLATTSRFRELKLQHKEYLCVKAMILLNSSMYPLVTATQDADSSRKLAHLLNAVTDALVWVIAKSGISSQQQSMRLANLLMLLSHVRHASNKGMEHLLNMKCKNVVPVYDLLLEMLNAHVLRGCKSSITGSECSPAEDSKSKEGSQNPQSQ
Description: Relative binding affinity for human estrogen receptor 2 compared to [3H]estradiol (100%)
Further: unit not given here.

Binding affinity [1] | Binding affinity [2] | SMILES
0.01 | 0.05 | CC(C)c1cc(C(C)C)n2nc(-c3ccccc3)c(-c3ccc(O)cc3)c2n1
0.14 | 0.06 | CC(C)c1cc(C(C)C)n2nc(-c3ccc(O)cc3)c(-c3ccccc3)c2n1
0.13 | 0.06 | CCc1cc(CC)n2nc(-c3ccc(O)cc3)c(-c3ccccc3)c2n1
0.02 | 0.11 | Cc1cc(C)n2nc(-c3ccc(O)cc3)c(-c3ccccc3)c2n1
1.9 | 1.7 | Oc1ccc(-c2nn3c(C(F)(F)F)cc(C(F)(F)F)nc3c2-c2ccc(O)cc2)cc1
0.01 | 0.04 | Oc1ccc(-c2c(-c3cccc(O)c3)nn3c(C(F)(F)F)cc(C(F)(F)F)nc23)cc1
0.01 | 0.05 | Cc1cc(C)n2nc(-c3ccccc3)c(-c3ccc(O)cc3)c2n1
< 0.01 | < 0.01 | FC(F)(F)c1cc(C(F)(F)F)n2nc(-c3ccccc3)c(-c3ccccc3)c2n1
0.39 | 0.41 | Oc1ccc(-c2nn3c(C(F)(F)F)cc(C(F)(F)F)nc3c2-c2ccccc2)cc1
< 0.01 | 0.01 | Cc1c(C(C)(C)C)nc2c(-c3ccc(O)cc3)c(-c3ccccc3)nn2c1C(C)(C)C
0.01 | 0.05 | Oc1ccc(-c2c(-c3ccccc3)nn3c(C(F)(F)F)cc(C(F)(F)F)nc23)cc1
0.01 | 0.02 | Cc1nc2c(-c3ccccc3)c(-c3ccc(O)cc3)nn2c(C)c1C
0.02 | 0.05 | CCc1cc(CC)n2nc(-c3ccccc3)c(-c3ccc(O)cc3)c2n1
0.04 | 0.08 | Oc1ccc(-c2nn3c(C(F)(F)F)cc(C(F)(F)F)nc3c2-c2cccc(O)c2)cc1
0.83 | 0.02 | Cc1c(C(C)(C)C)nc2c(-c3ccccc3)c(-c3ccc(O)cc3)nn2c1C(C)(C)C
< 0.01 | 0.01 | Cc1nc2c(-c3ccc(O)cc3)c(-c3ccccc3)nn2c(C)c1C

The remaining lines, values behind:

SMILES | Binding affinity [1] | Binding affinity [2]
Cc1nc2c(-c3cccc(O)c3)c(-c3ccc(O)cc3)nn2c(C)c1C | < 0.01 | < 0.01
Cc1nc2c(-c3ccc(O)cc3)c(-c3ccc(O)cc3)nn2c(C)c1C | 0.01 | 0.01
Cc1cc(C)n2nc(-c3ccccc3)c(-c3ccccc3)c2n1 | < 0.01 | < 0.01
CC(C)c1cc(C(C)C)n2nc(-c3ccc(O)cc3)c(-c3ccc(O)cc3)c2n1 | 0.1 | 0.07
c1ccc(-c2nn3cccnc3c2-c2ccccc2)cc1 | < 0.01 | < 0.01
Oc1ccc(-c2nn3cccnc3c2-c2ccccc2)cc1 | < 0.01 | 0.02
Oc1ccc(-c2c(-c3ccccc3)nn3c(-c4ccccc4)cc(-c4ccccc4)nc23)cc1 | < 0.01 | < 0.01
Cc1c(C(C)(C)C)nc2c(-c3ccc(O)cc3)c(-c3cccc(O)c3)nn2c1C(C)(C)C | < 0.01 | < 0.01
Oc1ccc(-c2nn3c(-c4ccccc4)cc(-c4ccccc4)nc3c2-c2ccccc2)cc1 | < 0.01 | < 0.01
CC(C)c1cc(C(C)C)n2nc(-c3cccc(O)c3)c(-c3ccc(O)cc3)c2n1 | < 0.01 | 0.01
Cc1cc(C)n2nc(-c3cccc(O)c3)c(-c3ccc(O)cc3)c2n1 | < 0.01 | < 0.01
CCc1cc(CC)n2nc(-c3ccccc3)c(-c3ccccc3)c2n1 | < 0.01 | < 0.01
CC(C)c1cc(C(C)C)n2nc(-c3ccc(O)cc3)c(-c3cccc(O)c3)c2n1 | 0.01 | < 0.01
CCc1cc(CC)n2nc(-c3ccc(O)cc3)c(-c3ccc(O)cc3)c2n1 | 0.16 | 0.07
Oc1ccc(-c2nn3c(-c4ccccc4)cc(-c4ccccc4)nc3c2-c2cccc(O)c2)cc1 | < 0.01 | < 0.01
Cc1c(C(C)(C)C)nc2c(-c3cccc(O)c3)c(-c3ccc(O)cc3)nn2c1C(C)(C)C | 0.02 | 0.01
Oc1ccc(-c2nn3cccnc3c2-c2cccc(O)c2)cc1 | < 0.01 | < 0.01
Oc1ccc(-c2c(-c3cccc(O)c3)nn3cccnc23)cc1 | < 0.01 | < 0.01
Oc1ccc(-c2c(-c3cccc(O)c3)nn3c(-c4ccccc4)cc(-c4ccccc4)nc23)cc1 | < 0.01 | < 0.01
Oc1ccc(-c2nn3c(-c4ccccc4)cc(-c4ccccc4)nc3c2-c2ccc(O)cc2)cc1 | 0.02 | 0.03
CCc1cc(CC)n2nc(-c3cccc(O)c3)c(-c3ccc(O)cc3)c2n1 | < 0.01 | < 0.01
CCc1cc(CC)n2nc(-c3ccc(O)cc3)c(-c3cccc(O)c3)c2n1 | < 0.01 | < 0.01
Cc1cc(C)n2nc(-c3ccc(O)cc3)c(-c3ccc(O)cc3)c2n1 | 0.04 | 0.07
Cc1nc2c(-c3ccc(O)cc3)c(-c3cccc(O)c3)nn2c(C)c1C | < 0.01 | < 0.01
Cc1cc(C)n2nc(-c3ccc(O)cc3)c(-c3cccc(O)c3)c2n1 | < 0.01 | < 0.01
Cc1c(C(C)(C)C)nc2c(-c3ccc(O)cc3)c(-c3ccc(O)cc3)nn2c1C(C)(C)C | 0.13 | 0.16
Oc1ccc(-c2nn3cccnc3c2-c2ccc(O)cc2)cc1 | < 0.01 | 0.1
Oc1ccc(-c2c(-c3ccccc3)nn3cccnc23)cc1 | 0.01 | 0.05
